Laboratory results from patent US20240261292A1, “COMBINATION THERAPIES” (Janssen Pharmaceutica NV, priority 2021, published 2024).
Structures can show the parent of a compound that is named as a salt.

What was measured:
[1] = system: iCell Cardiomyocytes2 (hSC-CMs); test: Ca2+-fluorescence assay in human pluripotent stem cell-derived cardiomyocytes (CTCM human); format: cell-based; parameters: key to Hazard Scoring Color @ 0.1 μM / Hazard Scoring Color @ 0.2 μM / Hazard Scoring Color @ 0.5 μM / Hazard Scoring Color @ 1 μM / Hazard Scoring Color @ 2.5 μM / Hazard Scoring Color @ 5 μM / Hazard Scoring Color @ 0.3 μM / Hazard Scoring Color @ 3 μM / Hazard Scoring Color @ 10 μM / Hazard Scoring Color @ 30 μM: Green: No concern; Yellow: Low concern; Red: High concern; Black: Very high concern due to arrhythmic events; conditions: 30 min
Experimental: 7) Cardio-Electrophysiological Effects of the Testing Compounds in Synchronously Beating Human Pluripotent Stem Cell-Derived Cardiomyocytes (hSC-CMs) Using a Ca^2+-Fluorescence Assay (CTCM Human)
Compounds were tested in the 96-well plates.
Compounds were tested at 0.1 μM, 0.2 μM, 0.5 μM, 1 μM, 2.5 μM and 5 μM (n=4 per dose) on Cor.4U®-Cardiomyocytes or on iCell® Cardionyocytes2.
Alternatively, compounds were tested at 0.1 μM, 0.3 μM; 1 μM, 3 μM, 10 μM and 30 μM (n=4 per dose) mostly on iCell® Cardiomyocytes2.
Vehicle control: Dimethylsulfoxide (DMSO). The solutions of the compound in DMSO or its solvent (final concentration of 0.1% DMSO; n=8).
Tested compounds were dissolved in DMSO at 1000-fold the intended concentrations. A compound “mother-plate” was made, containing the test compounds and positive and negative controls at 1000-fold the final concentrations. At the experiment day, these stock solutions were diluted with Tyrode (Sigma), supplemented with 10 mM HEPES (Gibco), to 2-fold the intended concentration (in round bottom compound plates). Final DMSO concentration in test solutions and vehicle control was 0.1%.
hSC-CMs (Cor.4U® Cardiomyocytes) were obtained from CDI (Ncardia, Germany). Cells are pre-plated and seeded in fibronectin-coated 96-well plates at a density suited to form a monolayer and maintained in culture in a stage incubator (37° C., 5% CO2), according to the instructions of the cell provider.
Second line hSC derived cardiomyocyte called iCell® Cardiomyocytes2 were purchased from FUJIFILM Cellular Dynamics (USA). The experiments with test drugs are carried out 5 to 7 days after plating the cells onto the plate to have a living, beating monolayer of hiPSC-derived cardiomyocytes. The beating monolayer in 96-well-plates are normally taken from 2 Vials of frozen iCell® Cardiomyocytes2 (≈5 million cells/vial), which will be plated onto three 96-well plates (≈50K/well).
At least one hour before the start of the experiments the normal cell medium was replaced with Tyrode solution with Calcium dye (see below).
Cal 520 dye (AAT Bioquest) was dissolved in 11 ml of Tyrode supplemented with 10 mM HEPES and warmed up to 37 C before adding to the cells.
35 μl cell culture medium was removed from each well and replaced with 35 μl of pre-warmed Cal 520 dye solution and cell plate was incubated for 45 min at 37° C./5% CO2. Cells were incubated for 5 min at 37° C.
Spontaneous electrical activity is recorded, using Cal520™ (AAT Bioquest) calcium fluorescence-dye signalling. This dye integrates the total intracellular calcium activity over the whole well. A bottle of Ca1520 dye (50 μg, MW: 1103/mol) is dissolved with 50 μl DMSO as a stock solution of 0.9 mM. 50 μL of the stock solution of the dye was added to 10 ml Tryodes solution to have dye concentration of 4.5 μM. Subsequently, 35 μl of this dye solution was added into each well, to have a final dye concentration of 1.58 μM. The current dye protocol on this CTCM human assay was established recently (Ivan Kopljar et al, Journal of Pharmacological and toxicological methods 2018. 91: 80-86; Lu et al., Tox Sci 2019. 170 (2): 345-356).
Fluorescent signals (Ca^2+ transient morphology) were measured using the Functional Drug Screen System (FDSS/μCell; Hamamatsu, Japan) and the recordings were subsequently analyzed off-line, using appropriate software e.g., Notocord.
The cell plate was loaded into the FDSS/μCell for a test run: Ca^2+ transients were measured for 4 minutes to check for synchronous beating of the cardiomyocytes in each well. All 96 wells were measured simultaneously (sampling interval: 0.06 s, short exposure time: 10 ms; excitation wavelength 480 nm; emission wavelength 540 nm; FDSS/μCell warmed to 37° C.).
During the compound addition step, 100 μl of the respective double-concentrated test solutions was pipetted into each well simultaneously.
Data were analyzed off-line using appropriate software e.g., Notocord-Hem (version 4.3). […]

KO-52 cells = test: Proliferation assay (spheroid), KO-52 control cell line; format: cell-based; conditions: Homo sapiens, 8 days, read-out: spheroid assay_OneTime KO-52 IC50
Experimental: The anti-proliferative effect of menin/MLL protein/protein interaction inhibitor test compounds was assessed inhuman leukemia cell lines. The cell line MOLM-14 harbors a MLL translocation and expresses the MLL fusion protein MLL-AF9, respectively, as well as the wildtype protein from the second allele. OCI-AML3 cells that carry the NPM1c gene mutation were also tested. […] KO-52 was used as a control cell line containing two MLL (KMT2A) wildtype alleles in order to exclude compounds that display general cytotoxic effects.
KO-52 and OCI-AML3 cell lines were propagated in alpha-MEM (Sigma Aldrich) supplemented with 20% heat-inactivated fetal bovine serum (HyClone), 2 mM L-glutamine (Sigma Aldrich) and 50 μg/ml gentamycin (Gibco).
In order to assess the anti-proliferative effects, 200 MOLM-14 cells, 200 OCI-AML3 cells or 300 KO-52 cells were seeded in 200 μl media per well in 96-well round bottom, ultra-low attachment plates (Costar, catalogue number 7007). […] Spheroid like growth was measured in real-time by live-cell imaging (IncuCyteZOOM, Essenbio, 4× objective) acquiring images at day 8. Confluence (%) as a measure of spheroid size was determined using an integrated analysis tool.
In order to determine the effect of the test compounds over time, the confluence in each well as a measure of spheroid size, was calculated. […]

[2] = iCell Cardiomyocytes2 (Table 12)
[3] = iCell Cardiomyocytes2 (Table 11)

SMILES | Hazard Scoring Color @ 0.1 μM [1, 2] | Hazard Scoring Color @ 0.3 μM ([1]; 0.3 μM, iCell Cardiomyocytes2 (Table 12)) | Hazard Scoring Color @ 1 μM [1, 2] | Hazard Scoring Color @ 3 μM ([1]; 3 μM, iCell Cardiomyocytes2 (Table 12)) | Hazard Scoring Color @ 10 μM ([1]; 10 μM, iCell Cardiomyocytes2 (Table 12)) | Hazard Scoring Color @ 30 μM ([1]; 30 μM, iCell Cardiomyocytes2 (Table 12)) | IC50 (KO-52 cells) | Hazard Scoring Color @ 0.1 μM [1, 3] | Hazard Scoring Color @ 0.2 μM ([1]; 0.2 μM, iCell Cardiomyocytes2 (Table 11)) | Hazard Scoring Color @ 0.5 μM ([1]; 0.5 μM, iCell Cardiomyocytes2 (Table 11)) | Hazard Scoring Color @ 1 μM [1, 3] | Hazard Scoring Color @ 2.5 μM ([1]; 2.5 μM, iCell Cardiomyocytes2 (Table 11)) | Hazard Scoring Color @ 5 μM ([1]; 5 μM, iCell Cardiomyocytes2 (Table 11))
CCN(C(=O)c1cc(F)ccc1Oc1nncnc1N1CCC2(C1)CN([C@H](CCCNCCOC)C(C)C)C2)C(C)C [Compound 11, (R)-N-ethyl-5-fluoro-N-isopropyl-2-((5-(2-(6-((2-methoxyethyl)amino)-2-methylhexan-3-yl)-2,6-diazaspiro[3.4]octan-6-yl)-1,2,4-triazin-6-yl)oxy)benzamide] | Green | Green | Green | Green | Green | Green | 8.38 µM | – | – | – | – | – | –
CCN(C(=O)c1cc(F)ccc1Oc1nncnc1N1CCC2(C1)CN([C@H](CCCN(C)CCOC)C(C)C)C2)C(C)C [Compound A3, (R)-N-ethyl-5-fluoro-N-isopropyl-2-((5-(2-(6-((2-methoxyethyl) (methyl)amino)-2-methylhexan-3-yl)-2,6-diazaspiro[3.4]octan-6-yl)-1,2,4-triazin-6-yl)oxy) benzamide oxalate] | – | – | – | – | – | – | 7.75 µM | Green | Green | Green | Green | Green | Green
